Counter-ions that a name gives are not always drawn.

The target in one data set is CYP3A4 (Homo sapiens, UniProt P08684). The experiment in a line: in vitro.
A further data set concerns the target T1, CYP2J2 (Homo sapiens, UniProt P51589).
T1 sequence (P51589 1-502): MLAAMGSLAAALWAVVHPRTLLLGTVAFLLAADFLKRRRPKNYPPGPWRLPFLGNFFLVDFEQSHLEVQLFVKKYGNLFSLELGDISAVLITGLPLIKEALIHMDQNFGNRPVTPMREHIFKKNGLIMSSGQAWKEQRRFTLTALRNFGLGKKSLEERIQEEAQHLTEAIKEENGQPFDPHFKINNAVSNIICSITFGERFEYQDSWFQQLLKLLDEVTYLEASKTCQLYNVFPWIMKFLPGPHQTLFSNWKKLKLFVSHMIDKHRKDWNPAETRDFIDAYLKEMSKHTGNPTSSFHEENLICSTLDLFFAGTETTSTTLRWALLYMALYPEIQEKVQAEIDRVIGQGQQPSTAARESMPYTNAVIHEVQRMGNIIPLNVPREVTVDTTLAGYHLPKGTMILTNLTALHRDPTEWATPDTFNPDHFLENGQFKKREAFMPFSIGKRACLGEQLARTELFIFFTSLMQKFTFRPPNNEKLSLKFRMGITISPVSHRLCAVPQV
Description: CYP2J2 P450-Glo luciferase assay (FDA Approved Drug Library screen). The settings on record: read-out: Average inhibition CYP2J2 (%).

Another data set deals with wild type BL/6N mice. Description: Thermal and mechanical thresholds after intraplantar or intrathecal 9,10-EpOME. In kind it is in vivo, mouse. As for the experimental part: FIG. 5: Intraplantar or intrathecal injection of 9,10-EpOME reduces pain thresholds and sensitizes capsaicin induced mechanical thresholds in wild type mice. (a) and (b) C57B1/6N mice received an intraplantar injection of 9,10-EpOME (10 μM) or vehicle (DMSO 0.3% (v/v) in saline). Thermal (a) or mechanical (b) thresholds were monitored for 5 h post injection. Data represents mean ±SEM from eight mice. (c) and (d) Wild type BL/6N mice were injected intrathecally with 9,10-EpOME (10 μM) or vehicle (DMSO 0.3% (v/v) in saline). Thermal (c) or mechanical (d) thresholds were monitored for 2 h (thermal) or 3 h (mechanical) post injection with 15 minute intervals for the first hour and 30 minute intervals for the second hour. Data represents mean ±SEM from eight mice. Die Abbildungen sind nicht mitgeliefert
For the determination of mechanical allodynia or thermal hypersensitivity, mice were kept in test cages on an elevated grid for at least 2 h to allow accommodation. Baseline measurements were performed using a Dynamic Plantar Aesthesiometer or a Hargreaves Apparatus (Ugo Basile, Comerio, VA, Italy) detecting withdrawal latency of the hind paws after mechanical stimulation. For the assessment of the mechanical thresholds, the steel rod was pushed against the mid-plantar hind paw with linear ascending force (0-5 g over 10 seconds, increasing 0.5 g/s) until a fast withdrawal response occurred. Slow movements of the paw were not counted. Paw withdrawal latencies (PWL) were determined in seconds (s) ±0.1 with a cut-off time of 20 s. The non-injected and injected paws were measured alternately in intervals of 5-10 min. For determination of thermal thresholds, mice were kept in test cages on a warmed glass plate (32° C.) for at least 2 h on the first day to allow accommodation. Then, the mid-plantar region of the paws was stimulated with a radiant heat device, consisting of a high intensity projector lamp, until withdrawal occurred. The non-injected and injected paws were measured alternately in intervals of 5-10 min. For all behavioral tests the investigator was blinded for treatment or genotype of the mice.
Treatments: For peripheral injections, 20 μl of 9,10-EpOME [5 μM] (Cayman, Ann Arbor, MI, USA) were injected subcutaneously (s.c.) in the mid-plantar area of the hind paw. […]
The inventors then tested the Galphas-coupled prostanoid receptors for their potential involvement in 9,10-EpOME dependent TRPV1 sensitization in calcium imaging experiments. […] To characterize in vivo effects of 9,10-EpOME, the inventors injected the lipid in hind paws of wild type BL/6N mice and measured the thermal (FIG. 5A) and mechanical thresholds (FIG. 5B) up to 5 h post injection. […] The inventors then injected 9,10-EpOME intrathecally and measured thermal and mechanical thresholds in short time intervals. […]

The next data set deals with T2, CYP2J6 (Mus musculus, UniProt O54750).
T2 construct: the inventors dissected the sciatic nerve, DRGs and the dorsal spinal cord and quantified epoxylipids in these tissues; from tissue; host or cells: sciatic nerve, DRGs, dorsal spinal cord and plasma of paclitaxel-treated C57BL/6N mice
T2 sequence (O54750 1-501): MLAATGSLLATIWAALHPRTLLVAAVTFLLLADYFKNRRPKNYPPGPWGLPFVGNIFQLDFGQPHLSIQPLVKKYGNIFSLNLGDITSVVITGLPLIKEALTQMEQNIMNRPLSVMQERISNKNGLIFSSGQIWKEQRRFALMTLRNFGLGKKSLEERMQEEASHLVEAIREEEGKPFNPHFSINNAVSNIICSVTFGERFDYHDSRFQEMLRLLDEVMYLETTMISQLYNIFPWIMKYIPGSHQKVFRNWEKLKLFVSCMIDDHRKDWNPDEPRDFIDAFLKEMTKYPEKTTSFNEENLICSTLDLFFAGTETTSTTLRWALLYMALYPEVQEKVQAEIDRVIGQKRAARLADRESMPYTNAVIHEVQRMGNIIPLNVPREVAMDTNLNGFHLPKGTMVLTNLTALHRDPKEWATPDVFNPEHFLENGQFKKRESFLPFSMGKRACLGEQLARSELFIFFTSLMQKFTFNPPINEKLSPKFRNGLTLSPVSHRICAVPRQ
The experiment in a line: LC-MS/MS epoxylipid levels in tissues of paclitaxel treated mice after terfenadine. In kind it is in vivo.

For data set [1], the system named is paclitaxel-induced CIPNP in mice.
Description: (a) Levels of 9,10-EpOME shown in % of control determined by LC-MS/MS in sciatic nerves, DRGs and the dorsal horn of the spinal cord eight days after treatment with paclitaxel (6 mg·kg-1 i.p. and 1 mg·kg-1 terfenadine (grey) or vehicle (2% DMSO v/v, black)) Data represents mean ±SEM from the DRGs of five mice per group; *p<0.05, **p<0.01, student's t-test. (b) Remaining concentrations of all measured epoxylipids and dihydro-metabolites (9,10-EpOME, 12,13-EpOME, 9,10-DiHOME, 12,13-DiHOME and 14,15-EET) in sciatic nerve, DRGs, dorsal horn of the spinal cord and plasma after administration of terfenadine (1 mg·kg-1). (c) Mechanical thresholds of mice treated with paclitaxel for eight days (6 mg·kg-1 i.p.) that received an intravenous injection of terfenadine (1 or 2 mg kg-1) or vehicle (DMSO 2.5 or 5% (v/v)). The mechanical thresholds were monitored up to 5 h after injection of terfenadine or vehicle. Data represent mean ±SEM from 8-9 mice per group; #, *p<0.05, two-way ANOVA with Bonferroni post hoc test (*1 mg kg-1, #2 mg kg-1 terfenadine). […] Data represent mean ±SEM from 6-9 mice per group.
Paclitaxel was solved in Cremophor EL/Ethanol 1:1 and diluted in saline. The dose for intraperitoneal injection was set to 6 mg/kg as described previously.
For the determination of mechanical allodynia or thermal hypersensitivity, mice were kept in test cages on an elevated grid for at least 2 h to allow accommodation. Baseline measurements were performed using a Dynamic Plantar Aesthesiometer or a Hargreaves Apparatus (Ugo Basile, Comerio, VA, Italy) detecting withdrawal latency of the hind paws after mechanical stimulation. […] Slow movements of the paw were not counted. Paw withdrawal latencies (PWL) were determined in seconds (s) ±0.1 with a cut-off time of 20 s. The non-injected and injected paws were measured alternately in intervals of 5-10 min. […] The non-injected and injected paws were measured alternately in intervals of 5-10 min. […]
The next data set deals with DRG neurons. The experiment in a line: Calcium imaging: 9,10-EpOME-evoked calcium transients in DRG neurons. In kind it is cell-based, mouse. The settings on record: 9,10-EpOME 10 μM, 30 s; antagonist pre-incubated two minutes; AMG 9810 1 μM, HC-030031 20 μM. The procedure:
FIG. 2: Direct effects of 9,10-EpOME on DRG-neurons. (a) Application of 9,10-EpOME [10 μM, 30 s] causes calcium transients on DRG neurons which respond to high potassium (50 mM KCl, 30 s). A representative trace is shown. (b) Dose response relationship of 9,10-EpOME dependent calcium increases in DRG neurons related to the number of responding neurons Data represents the mean ±SEM of five measurements per concentration. (c) and (d) Calcium transients caused by 9,10-EpOME [10 μM, 30 s] can be disrupted using calcium-free medium containing EGTA (2 mM) washed in 2 minutes before and after 9,10-EpOME stimulation. Data represents the mean ±SEM of 24 (calcium-free) or 16 (control) neurons. (e) and (f) Calcium transients of 9,10-EpOME [10 μM, 30 s] can be blocked by a selective TRPV1 antagonist (AMG 9810, 1 μM) but not by a selective TRPA1 antagonist (HC-030031, 20 μM) washed in for two minutes prior to the second 9,10-EpOME stimulation. Data represents the mean ±SEM of 16 (control), 31 (AMG 9810) or 18 (HC-030031) neurons; **p<0.01, student's t-test.
Next, the inventors characterized 9,10-EpOME concerning its effects on DRG-neurons in calcium imaging experiments. […]

In a further data set the target is TRPV1 (Mus musculus, UniProt Q704Y3). Description: Calcium imaging: TRPV1 sensitization, double capsaicin stimulation of DRG neurons. The note with it: inhibitor 10 μM, preincubation 1 h; 9,10-EpOME 1 μM.
Setting [2] is: intraplantar injection in hind paws.

Chain of CYP3A4 (P08684 whole entry): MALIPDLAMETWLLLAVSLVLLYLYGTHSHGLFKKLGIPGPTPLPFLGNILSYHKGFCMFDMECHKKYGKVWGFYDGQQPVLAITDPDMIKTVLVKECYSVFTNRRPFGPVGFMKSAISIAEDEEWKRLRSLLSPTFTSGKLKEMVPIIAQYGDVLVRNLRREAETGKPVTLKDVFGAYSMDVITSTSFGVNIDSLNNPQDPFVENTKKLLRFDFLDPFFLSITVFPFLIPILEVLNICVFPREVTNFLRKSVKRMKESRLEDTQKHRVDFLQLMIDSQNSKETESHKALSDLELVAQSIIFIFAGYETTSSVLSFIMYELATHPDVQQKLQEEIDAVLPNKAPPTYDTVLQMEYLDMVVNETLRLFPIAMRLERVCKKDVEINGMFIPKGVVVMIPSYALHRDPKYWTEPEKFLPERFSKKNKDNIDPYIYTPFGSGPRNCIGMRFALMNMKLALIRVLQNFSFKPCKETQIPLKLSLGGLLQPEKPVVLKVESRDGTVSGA
Chain of TRPV1 (Q704Y3 whole entry): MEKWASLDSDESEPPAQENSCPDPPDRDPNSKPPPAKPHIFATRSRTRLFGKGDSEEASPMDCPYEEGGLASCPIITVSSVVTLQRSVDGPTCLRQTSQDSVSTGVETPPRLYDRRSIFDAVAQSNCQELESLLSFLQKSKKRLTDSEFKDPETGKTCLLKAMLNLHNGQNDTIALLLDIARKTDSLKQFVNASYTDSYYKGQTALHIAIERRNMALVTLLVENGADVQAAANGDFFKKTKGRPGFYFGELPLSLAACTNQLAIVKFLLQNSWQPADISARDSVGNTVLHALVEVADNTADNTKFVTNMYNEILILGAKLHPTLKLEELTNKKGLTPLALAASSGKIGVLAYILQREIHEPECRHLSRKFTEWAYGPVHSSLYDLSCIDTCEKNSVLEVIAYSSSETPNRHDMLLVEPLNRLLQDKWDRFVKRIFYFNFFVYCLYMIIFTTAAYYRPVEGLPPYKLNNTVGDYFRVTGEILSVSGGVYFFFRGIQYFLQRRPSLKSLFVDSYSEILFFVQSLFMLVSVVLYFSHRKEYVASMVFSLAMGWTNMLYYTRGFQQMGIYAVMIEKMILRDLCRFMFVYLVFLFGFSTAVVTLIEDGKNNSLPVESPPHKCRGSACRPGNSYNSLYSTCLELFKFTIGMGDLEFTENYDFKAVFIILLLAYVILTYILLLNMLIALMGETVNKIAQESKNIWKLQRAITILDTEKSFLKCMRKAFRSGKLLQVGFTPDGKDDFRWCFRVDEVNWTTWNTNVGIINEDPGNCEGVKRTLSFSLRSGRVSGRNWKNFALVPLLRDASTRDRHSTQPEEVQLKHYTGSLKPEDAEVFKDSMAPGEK
Description for CYP2J6: (b) Remaining concentrations of all measured epoxylipids and dihydro-metabolites (9,10-EpOME, 12,13-EpOME, 9,10-DiHOME, 12,13-DiHOME and 14,15-EET) in sciatic nerve, DRGs, dorsal horn of the spinal cord and plasma after administration of terfenadine (1 mg·kg-1).
Sample extraction and standards: Sample extraction was performed as described previously. Briefly, stock solutions with 2500 ng/ml of all analytes were prepared in methanol. Working standards were obtained by further dilution with a concentration range of 0.1-250 ng/ml for EETs, EpOMEs and DiHOMEs and HODEs Sample extraction was performed with liquid-liquid-extraction. Therefore tissue or cell culture medium was extracted twice with 600 μl ethyl acetate. The combined organic phases were removed at a temperature of 45° C. under a gentle stream of nitrogen. The residues were reconstituted with 50 μl of methanol/water/(50:50, v/v), centrifuged for 2 min at 10,000×g and then transferred to glass vials (Macherey-Nagel, Düren, Germany) prior to injection into the LC-MS/MS system.
Instrumentation for measuring epoxylipids and HODEs: The LC-MS/MS system consisted of an API 4000 triple quadrupole mass spectrometer (Applied Biosystems, Darmstadt, Germany), equipped with a Turbo-V-source operating in negative ESI mode, an Agilent 1100 binary HPLC pump and degasser (Agilent, Waldbronn, Germany) and an HTC Pal autosampler (Chromtech, Idstein, Germany) fitted with a 25 μL LEAP syringe (Axel Semrau GmbH, Sprockhövel, Germany). High purity nitrogen for the mass spectrometer was produced by a NGM 22-LC-MS nitrogen generator (cmc Instruments, Eschborn, Germany). […] Quantification was performed with Analyst Software V 1.4.2 (Applied Biosystems, Darmstadt, Germany) employing the internal standard method (isotope-dilution mass spectrometry). Ratios of analyte peak area and internal standard area (y-axis) were plotted against concentration (x-axis) and calibration curves were calculated by least square regression with 1/concentration2 weighting.
Description for TRPV1: (a) DRG neurons were double-stimulated with capsaicin (200 nM, 15 s each) and incubated with either vehicle or 9,10-EpOME [1 μM] for two minutes prior to the second capsaicin stimulation. (b) Dose-dependent difference in ratio between the first and the second capsaicin response using the same protocol as described in (a). Data represent the mean ±SEM of the following number of neurons: 27 (control), 26 (250 nM 9,10-EpOME), 21 (500 nM 9,10-EpOME), 19 (750 nM 9,10-EpOME), 41 (1 μM 9,10-EpOME), 18 (2 μM 9,10-EpOME) or 28 (using 50 μM AITC for 20 s instead of capsaicin); *p<0.05, **p<0.01, ***p<0.001 student's t-test.
Data represent mean ±SEM of 15 (vehicle), 19 (EpOME) or 33 neurons (EpOME with H89 preincubation). […] Data represent mean ±SEM of 18 (vehicle), 23 (EpOME) or 39 neurons (EpOME with GFX preincubation); *p<0.05, **p<0.01 student's t-test; n.s. not significant.
Murine DRGs were dissected from spinal segments and directly transferred to ice cold HBSS with CaCl2 and MgCl2 (Invitrogen, Carsbad, CA, USA). Next, isolated DRGs were incubated with collagenase/dispase (500 U/ml Collagenase; 2.5 U/ml Dispase) in neurobasal medium containing L-glutamine [2 mM] penicillin (100 U/ml), streptomycin (100 μg/ml), B-27 and gentamicin (50 μg/ml) (all from Invitrogen, Carlsbad, CA, USA) at 37° C. for 75 min. […]

As to `C[C@]12CC[C@@H]3c4ccc(O)cc4CC[C@H]3[C@@H]1CC[C@@H]2O` [c054, Estradiol], the inhibition – broadly, the change of the read-out against control, counted positive when it falls – at 30 min, 10 μM at CYP3A4 came to 12.1%. Also, the inhibition at 10 µM at CYP2J2 was 84.4%.
Turning to `CCCCC/C=C\CC1OC1CCCCCCCC(=O)O` (stereo not drawn) [9,10-EpOME, 9,10-epoxy-12Z-octadecenoic acid], in the data set with wild type BL/6N mice (setting [2]), the “duration of significant reduction of mechanical thresholds” value came out at 2 h and the “duration of significant reduction of thermal thresholds” value came to 1 h. In the data set on wild type BL/6N mice (intrathecal injection), the “duration of decrease of mechanical thresholds” value is reported as “up to 1.5 h”. In the data set on wild type BL/6N mice (intrathecal injection, 30 minutes after i.th. injection), the thermal thresholds entry is given as “significant but rather weak reduction”.
In the case of `Cc1cccc(CN2CCN(C(c3ccccc3)c3ccc(Cl)cc3)CC2)c1` (stereo not drawn) [c608, Meclizine Dihydrochloride], the inhibition at 30 min, 10 μM against CYP3A4 came out at 17.4%. Moreover, the inhibition at 10 µM on CYP2J2 was 71.5%.
The like results for `CCC(=O)O[C@]1(C(=O)CCl)[C@@H](C)C[C@H]2[C@@H]3CCC4=CC(=O)C=C[C@]4(C)[C@@]3(F)[C@@H](O)C[C@@]21C` [c146, Clobetasol Propionate] were, in that order, -4.3% and 78.2%.
Regarding `Cc1[nH]cnc1CN1CCc2c(c3ccccc3n2C)C1=O` [c595, Alosetron•HCl], the inhibition at 30 min, 10 μM against CYP3A4 was determined as 14%. Further, on CYP2J2, the inhibition at 10 µM was determined as 81.8%.
The like results for `CC(C)/N=c1\cc2n(-c3ccc(Cl)cc3)c3ccccc3nc-2cc1Nc1ccc(Cl)cc1` [c516, Clofazimine] were, in that order, -82.9% and 79.1%.
The like results for `CC(C)OC(=O)C(C)(C)Oc1ccc(C(=O)c2ccc(Cl)cc2)cc1` [c246, Fenofibrate] were, in that order, -26.2% and 78%.
In the case of `CC(C)(C)c1ccc(C(O)CCCN2CCC(C(O)(c3ccccc3)c3ccccc3)CC2)cc1` (stereo not drawn) [Terfenadine], the “remaining concentrations of all measured epoxylipids in DRGs, spinal dorsal horn and plasma” value at CYP2J6 (1 mg·kg-1 i.v.) was “reduced significantly”. The “9,10-EpOME concentrations in sciatic nerve, DRGs and dorsal spinal cord” value on CYP2J6 (1 mg·kg-1 i.v., two hours, eight days after paclitaxel) was “significant reduction”. Further, the “levels of epoxylipids reduced to” value at CYP2J6 (terfenadine treatment) is “about 50%”. In addition, the “duration of increase in mechanical thresholds” value in data set [1] (1 or 2 mg·kg-1 i.v., eight days after paclitaxel) was determined as 2 h. In addition, the “difference between the two doses in mechanical thresholds” value in data set [1] (1 versus 2 mg·kg-1 i.v.) is reported as “no significant differences”. Besides, the “mechanical thresholds of paclitaxel treated mice” value in data set [1] (terfenadine 1 or 2 mg·kg-1 i.v., loratadine 1 mg kg-1 i.v., eight days after paclitaxel) is reported as “significant increase”.
With `CC(C)(C)c1ccc(/C=C/C(=O)Nc2ccc3c(c2)OCCO3)cc1` [AMG 9810], the “block of the second 9,10-EpOME-evoked calcium transient” value with DRG neurons is “could block”.
Take `CC1(C)O[C@@H]2C[C@H]3[C@@H]4CCC5=CC(=O)CC[C@]5(C)[C@@]4(F)[C@@H](O)C[C@]3(C)[C@]2(C(=O)CCl)O1` [c440, Halcinonide]: the inhibition at 30 min, 10 μM against CYP3A4 was -18.5%. Besides, the inhibition at 10 µM on CYP2J2 came to 76.8%.
On to `C#C[C@]1(O)CC[C@H]2[C@@H]3CCC4=CC(=O)CC[C@@H]4[C@H]3CC[C@@]21CC` [c314, Levonorgestrel], for which the inhibition at 30 min, 10 μM against CYP3A4 came out at 5.1%. Further, at CYP2J2, the inhibition at 10 µM worked out at 64%.
As to `Cl.Cl.O=S(=O)(NCCNC/C=C/c1ccc(Br)cc1)c1cccc2cnccc12` [H89 dihydrochloride], at TRPV1, the “effect of kinase inhibitor on 9,10-EpOME-evoked TRPV1 sensitization” value is “significant reduction”.
On the same count and under the same terms, the value for `CN(C)CCCn1cc(C2=C(c3c[nH]c4ccccc34)C(=O)NC2=O)c2ccccc21` was “did not have any effect”.
Consider `CC(C)c1ccc(NC(=O)Cn2cnc3c2c(=O)n(C)c(=O)n3C)cc1` [HC-030031], for which, in the data set on DRG neurons, the “block of the second 9,10-EpOME-evoked calcium transient” value is “but not the TRPA1 antagonist HC-030031 could block”.

The values above are taken from patent publication US11944613B2, “CYP2J2 antagonists in the treatment of pain” (FRAUNHOFER-GESELLSCHAFT ZUR FÖRDERUNG DER ANGEWANDTEN …, priority 2014, dated 2024).
